Tests used:
MERS Mpro = MERS Mpro (Middle East respiratory syndrome-related coronavirus (isolate United Kingdom/H123990006/2012) (MERS-CoV) (Betacoronavirus England 1), UniProt K9N7C7); test: biochemical
in vitro [1] = settings: rat, microsomes, pH 7.4
in vitro [2] = settings: PAMPA
SARS-CoV-2 Mpro = SARS-CoV-2 Mpro (Severe acute respiratory syndrome coronavirus 2 (2019-nCoV) (SARS-CoV-2), UniProt P0DTD1); assay type: biochemical
[3] = test system: SARS-CoV-2 (strain USA-WA1/2020); test: microbe, parasite or virus in culture; assay type: cell-based; settings: Severe acute respiratory syndrome coronavirus 2; HeLa-ACE2 cells; read-out: Antiviral CoV-2 EC50
229E Mpro = 229E Mpro (Human coronavirus 229E (HCoV-229E), UniProt P0C6X1); assay type: biochemical
229E virus = test: organism not typed; assay type: cell-based; settings: Huh-7, read-out: Antiviral 229E EC50 (μM)
SARS-CoV-1 Mpro = SARS-CoV-1 Mpro (Severe acute respiratory syndrome coronavirus (SARS-CoV), UniProt P0C6X7); assay type: biochemical
OC43 Mpro = OC43 Mpro (Human coronavirus OC43 (HCoV-OC43), UniProt P0C6X6); assay type: biochemical
OC43 virus = test: microbe, parasite or virus in culture; assay type: cell-based; settings: Betacoronavirus 1, OC43, Huh-7, read-out: Antiviral OC43 EC50 (μM)
in vitro [4] = settings: human, microsomes, pH 7.4

229E Mpro, sequence (P0C6X1 2966-3267 limits assumed): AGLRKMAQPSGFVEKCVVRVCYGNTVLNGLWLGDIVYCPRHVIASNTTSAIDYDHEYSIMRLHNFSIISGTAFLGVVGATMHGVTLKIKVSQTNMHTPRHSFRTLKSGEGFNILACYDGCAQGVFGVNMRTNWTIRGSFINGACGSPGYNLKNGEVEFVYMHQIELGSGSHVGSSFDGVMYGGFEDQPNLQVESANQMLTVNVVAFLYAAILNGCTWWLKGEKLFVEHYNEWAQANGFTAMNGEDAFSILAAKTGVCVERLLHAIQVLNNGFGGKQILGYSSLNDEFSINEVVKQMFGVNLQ
OC43 Mpro, sequence (P0C6X6 3247-3549 limits assumed): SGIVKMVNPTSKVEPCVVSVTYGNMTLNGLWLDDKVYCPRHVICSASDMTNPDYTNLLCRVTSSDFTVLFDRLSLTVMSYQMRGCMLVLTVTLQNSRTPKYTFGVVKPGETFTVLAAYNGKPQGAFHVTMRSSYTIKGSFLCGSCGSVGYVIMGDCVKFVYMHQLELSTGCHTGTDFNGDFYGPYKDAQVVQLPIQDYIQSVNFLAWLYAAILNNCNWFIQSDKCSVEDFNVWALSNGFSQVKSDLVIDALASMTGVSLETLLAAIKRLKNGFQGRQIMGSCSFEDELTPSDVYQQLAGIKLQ
MERS Mpro, sequence (K9N7C7 3248-3553 limits assumed): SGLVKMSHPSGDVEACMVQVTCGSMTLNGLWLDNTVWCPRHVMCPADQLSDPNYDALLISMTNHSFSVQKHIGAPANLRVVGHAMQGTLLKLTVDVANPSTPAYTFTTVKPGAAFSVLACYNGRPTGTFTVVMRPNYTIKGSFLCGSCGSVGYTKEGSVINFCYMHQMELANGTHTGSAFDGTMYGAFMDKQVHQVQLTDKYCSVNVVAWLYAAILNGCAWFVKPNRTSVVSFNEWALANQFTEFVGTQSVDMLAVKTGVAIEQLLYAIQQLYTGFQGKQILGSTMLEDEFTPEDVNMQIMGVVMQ

Question: For `O=C(N[C@@H]1CCN(c2c(C(=O)N3CCOCC3)cc(Br)cc2C(F)(F)F)C1)c1cc(=O)[nH]c2ccccc12` [Compound 56], which EC50 (MERS Mpro) is on record?
Answer: 0.92 nM

Question: What about the CLint scaled (in vitro [1]) of the same compound?
Answer: 400 mL/min/kg

Question: And the Papp (in vitro [2])?
Answer: 10.9 ×10⁻⁶ cm/s

Question: And the EC50 (SARS-CoV-2 Mpro)?
Answer: 0.45 nM

Question: And the EC50 [3]?
Answer: 18.1 nM

Question: And the EC50 (229E Mpro)?
Answer: 1.83 nM

Question: And the EC50 (229E virus)?
Answer: 0.062 µM

Question: What about the EC50 (SARS-CoV-1 Mpro) of the same compound?
Answer: 4.49 nM

Question: What about the EC50 (OC43 Mpro) of the same compound?
Answer: 0.74 nM

Question: What about the EC50 (OC43 virus) of the same compound?
Answer: 0.014 µM

Question: What about the CLint scaled (in vitro [4]) of the same compound?
Answer: 157 mL/min/kg

Question: What does the source list for `COc1cccc2[nH]c(=O)cc(C(=O)N[C@@H]3CCN(c4c(C(=O)N5CCOCC5)cc(Cl)nc4C4CC4)C3)c12` [Compound 82]?
Answer: EC50 (MERS Mpro): 2.91 nM; CLint scaled (in vitro [1]): 51.7 mL/min/kg; Papp (in vitro [2]): 3.1 ×10⁻⁶ cm/s; EC50 (SARS-CoV-2 Mpro): 0.99 nM; EC50 [3]: 241 nM; EC50 (229E Mpro): 13.5 nM; EC50 (229E virus): 1.17 µM; EC50 (OC43 Mpro): 1.61 nM; EC50 (OC43 virus): 0.083 µM; CLint scaled (in vitro [4]): 56.7 mL/min/kg

Question: Which EC50 (MERS Mpro) does the source give for `Cc1cc(C(=O)N2CCOCC2)c(N2C[C@H](NC(=O)c3cc(=O)[nH]c4c(F)c(F)ccc34)C[C@H]2C)c(C2CC2)c1` [Compound 83] here?
Answer: 1.39 nM

Question: And the CLint scaled (in vitro [1])?
Answer: 1430 mL/min/kg

Question: And the Papp (in vitro [2])?
Answer: 15.7 ×10⁻⁶ cm/s

Question: And the EC50 (SARS-CoV-2 Mpro)?
Answer: 0.42 nM

Question: And the EC50 (229E Mpro)?
Answer: 1.76 nM

Question: What about the EC50 (229E virus) of the same compound?
Answer: 0.029 µM

Question: What about the EC50 (SARS-CoV-1 Mpro) of the same compound?
Answer: 1.53 nM

Question: What about the EC50 (OC43 Mpro) of the same compound?
Answer: 0.42 nM

Question: What about the EC50 (OC43 virus) of the same compound?
Answer: 0.023 µM

Question: What about the CLint scaled (in vitro [4]) of the same compound?
Answer: 1120 mL/min/kg

Question: What does the source list for `O=C(N[C@@H]1CCN(c2c(C(=O)N3CCOCC3)cc(Br)cc2C(F)(F)F)C1)c1cc(=O)[nH]c2c(F)cc(F)cc12` [Compound 49]?
Answer: EC50 (MERS Mpro): 0.95 nM; CLint scaled (in vitro [1]): 573 mL/min/kg; Papp (in vitro [2]): 15.6 ×10⁻⁶ cm/s; EC50 (SARS-CoV-2 Mpro): 0.43 nM; EC50 [3]: 11.3 nM; EC50 (229E Mpro): 4.7 nM; EC50 (229E virus): 0.0959 µM; EC50 (SARS-CoV-1 Mpro): 1.1 nM; EC50 (OC43 Mpro): 1.64 nM; EC50 (OC43 virus): 0.168 µM; CLint scaled (in vitro [4]): 190 mL/min/kg

Question: For `O=C(N[C@@H]1CCN(c2c(C(=O)N3CCOCC3)cc(Br)cc2C(F)(F)F)C1)c1c(F)c(=O)[nH]c2c(F)cccc12` [Compound 48], which EC50 (MERS Mpro) is on record?
Answer: 0.9 nM

Question: And the CLint scaled (in vitro [1])?
Answer: 210 mL/min/kg

Question: And the Papp (in vitro [2])?
Answer: 17.9 ×10⁻⁶ cm/s

Question: What about the EC50 (SARS-CoV-2 Mpro) of the same compound?
Answer: 0.43 nM

Question: What about the EC50 [3] of the same compound?
Answer: 5.8 nM

Question: What about the EC50 (229E Mpro) of the same compound?
Answer: 1.43 nM

Question: And the EC50 (229E virus)?
Answer: 0.044 µM

Question: And the EC50 (SARS-CoV-1 Mpro)?
Answer: 1.15 nM

Question: What about the EC50 (OC43 Mpro) of the same compound?
Answer: 0.44 nM

Question: What about the EC50 (OC43 virus) of the same compound?
Answer: 0.031 µM

Question: What about the CLint scaled (in vitro [4]) of the same compound?
Answer: 81.7 mL/min/kg

Question: Which EC50 (MERS Mpro) does the source give for `COc1cccc2[nH]c(=O)cc(C(=O)N[C@@H]3CCN(c4c(C(=O)N5CCOCC5)cc(C)cc4C4CC4)C3)c12` [Compound 81] here?
Answer: 2.31 nM

Question: And the CLint scaled (in vitro [1])?
Answer: 227 mL/min/kg

Question: And the Papp (in vitro [2])?
Answer: 2.81 ×10⁻⁶ cm/s

Question: What about the EC50 (SARS-CoV-2 Mpro) of the same compound?
Answer: 0.49 nM

Question: And the EC50 [3]?
Answer: 18.2 nM

Question: What about the EC50 (229E Mpro) of the same compound?
Answer: 2.13 nM

Question: And the EC50 (229E virus)?
Answer: 0.073 µM

Question: What about the EC50 (SARS-CoV-1 Mpro) of the same compound?
Answer: 1.38 nM

Question: What about the EC50 (OC43 Mpro) of the same compound?
Answer: 0.66 nM

Question: And the EC50 (OC43 virus)?
Answer: 0.013 µM

Question: What about the CLint scaled (in vitro [4]) of the same compound?
Answer: 65 mL/min/kg

Question: For `O=C(N[C@@H]1CCN(c2c(C(=O)N3CCOCC3)cc(Br)cc2C(F)(F)F)C1)c1c(F)c(=O)[nH]c2c(F)c(F)ccc12` [Compound 50], which EC50 (MERS Mpro) is on record?
Answer: 1.9 nM

Question: What about the CLint scaled (in vitro [1]) of the same compound?
Answer: 165 mL/min/kg

Question: What about the Papp (in vitro [2]) of the same compound?
Answer: 16.2 ×10⁻⁶ cm/s

Question: What about the EC50 (SARS-CoV-2 Mpro) of the same compound?
Answer: 0.5 nM

Question: And the EC50 [3]?
Answer: 11.4 nM

Question: And the EC50 (229E Mpro)?
Answer: 4.51 nM

Question: What about the EC50 (229E virus) of the same compound?
Answer: 0.319 µM

Question: And the EC50 (SARS-CoV-1 Mpro)?
Answer: 2.23 nM

Question: And the EC50 (OC43 Mpro)?
Answer: 1.2 nM

Question: What about the EC50 (OC43 virus) of the same compound?
Answer: 0.303 µM

Question: And the CLint scaled (in vitro [4])?
Answer: 190 mL/min/kg

Question: Which EC50 (MERS Mpro) does the source give for `COc1cccc2[nH]c(=O)cc(C(=O)N[C@@H]3CCN(c4c(C(=O)N5CCOCC5)cc(F)cc4C4CC4)C3)c12` [Compound 79] here?
Answer: 1.51 nM

Question: What about the CLint scaled (in vitro [1]) of the same compound?
Answer: 235 mL/min/kg

Question: And the Papp (in vitro [2])?
Answer: 2.98 ×10⁻⁶ cm/s

Question: And the EC50 (SARS-CoV-2 Mpro)?
Answer: 0.42 nM

Question: And the EC50 [3]?
Answer: 38.5 nM

Question: What about the EC50 (229E Mpro) of the same compound?
Answer: 2.42 nM

Question: And the EC50 (229E virus)?
Answer: 0.0284 µM

Question: And the EC50 (OC43 Mpro)?
Answer: 0.76 nM

Question: What about the EC50 (OC43 virus) of the same compound?
Answer: 0.02 µM

Question: And the CLint scaled (in vitro [4])?
Answer: 31.7 mL/min/kg

Question: Which EC50 (MERS Mpro) does the source give for `O=C(N[C@@H]1CCN(c2c(C(=O)N3CCOCC3)cc(Br)cc2C(F)(F)F)C1)c1cc(=O)[nH]c2c(Cl)cccc12` [Compound 58] here?
Answer: 0.91 nM

Question: And the CLint scaled (in vitro [1])?
Answer: 1000 mL/min/kg

Question: And the Papp (in vitro [2])?
Answer: 17.9 ×10⁻⁶ cm/s

Question: What about the EC50 (SARS-CoV-2 Mpro) of the same compound?
Answer: 0.42 nM

Question: And the EC50 (229E Mpro)?
Answer: 24.5 nM

Question: And the EC50 (229E virus)?
Answer: 0.983 µM

Question: And the EC50 (SARS-CoV-1 Mpro)?
Answer: 1.07 nM

Question: What about the EC50 (OC43 Mpro) of the same compound?
Answer: 5.84 nM

Question: What about the EC50 (OC43 virus) of the same compound?
Answer: 0.864 µM

Question: What about the CLint scaled (in vitro [4]) of the same compound?
Answer: 365 mL/min/kg

Question: Which EC50 (MERS Mpro) does the source give for `O=C(N[C@@H]1CCN(c2c(C(=O)N3CCOCC3)cc(F)cc2C2CC2)C1)c1cc(=O)[nH]c2c(F)cccc12` [Compound 46] here?
Answer: 1.75 nM

Question: And the CLint scaled (in vitro [1])?
Answer: 897 mL/min/kg

Question: And the Papp (in vitro [2])?
Answer: 15.2 ×10⁻⁶ cm/s

Question: What about the EC50 (SARS-CoV-2 Mpro) of the same compound?
Answer: 0.47 nM

Question: What about the EC50 [3] of the same compound?
Answer: 20.9 nM

Question: And the EC50 (229E Mpro)?
Answer: 2.76 nM

Question: What about the EC50 (229E virus) of the same compound?
Answer: 0.073 µM

Question: What about the EC50 (OC43 Mpro) of the same compound?
Answer: 0.81 nM

Question: And the EC50 (OC43 virus)?
Answer: 0.049 µM

Question: And the CLint scaled (in vitro [4])?
Answer: 53.3 mL/min/kg

Question: Which results are given for `O=C(N[C@@H]1CCN(c2c(C(=O)N3CCOCC3)cc(F)cc2C(F)(F)F)C1)c1cc(=O)[nH]c2c(F)cc(F)cc12` [Compound 38]?
Answer: EC50 (MERS Mpro): 2.39 nM; CLint scaled (in vitro [1]): 625 mL/min/kg; Papp (in vitro [2]): 14.5 ×10⁻⁶ cm/s; EC50 (SARS-CoV-2 Mpro): 1.84 nM; EC50 (229E Mpro): 5.9 nM; EC50 (229E virus): 0.142 µM; EC50 (OC43 Mpro): 9.11 nM; EC50 (OC43 virus): 0.327 µM; CLint scaled (in vitro [4]): 173 mL/min/kg
